Assay in all cases: DTP human tumour cell line panel, 48 h
Test [1] concerns UACC-257 melanoma.
Test [2] concerns EKVX NSCLC.
The subject of test [3] is MOLT-4 leukemia.
Test [4] deals with UACC-62 melanoma.
For test [5], the system named is SNB-75 CNS.
Test [6] relates to NCI-H226 lung.
The test system of test [7] is HL-60(TB) leukemia.
Test [8] concerns NCI-H522 lung.
The subject of test [9] is DU-145 prostate.
Test [10] has as its system BT-549 breast.

Values joined by “and” are separate entries in the source; they are usually repeats but may differ in a detail not shown here. Equal entries are not always repeated.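 Results reflect a 48-hour exposure of cells in 96-well plates to compound at five concentrations. GI50: concentration for 50% inhibition of growth. TGI marks complete inhibition of growth.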

Regarding `O=c1[nH]cc(C(F)(C(F)(F)F)C(F)(F)F)c(=O)[nH]1`, the TGI in test [1], in [2], in [3], in test [4], in [5] and in [6] was over 100 µM throughout. Besides, the TGI in test [7] and in [8] was over 100 µM each time.
Regarding `COc1ccc(C)cc1C1CCC(=O)O1` (stereo unspecified), the TGI in test [1], in test [2], in test [3], in test [4], in test [5] and in test [6] was over 100 µM each time. The TGI in test [7] and in test [8] was over 100 µM each time.
As for `COc1cc(C(C#N)NNc2nc(C)cc(=O)[nH]2)cc(OC)c1OC` (stereo unspecified), the TGI in test [1], in [4], in [5], in test [6], in test [7] and in test [8] was over 100 µM each time.
Turning to `CC(C)N1C(C)[C@@H](c2ccccc2)O[P@]1(=O)CC1=CCCCC1` (stereo partly specified), the TGI in test [1], in test [2], in test [3], in test [4], in test [5] and in test [6] was over 100 µM each time. Also, the total growth inhibition concentration (TGI) in test [7] is 57.4 µM; in test [8], over 100 µM.
As to `C/C(=N\NS(=O)(=O)c1ccc([N+](=O)[O-])cc1)c1ccc[n+]([O-])n1`, the TGI in test [1] was 14.6 µM; in test [2], 20.9 µM; in test [3], 11.5 µM; in [4] it was 2.59 µM; in test [5], 5.36 µM; in test [6], 3.91 µM. For the same compound, the TGI was over 22.6 µM in [7] and 4.51 µM in [8].
Regarding `CCCCCCCCCCCCCCCCCC(=O)NCC(COP(=O)(O)O)OCC` (stereo unspecified), the TGI is over 100 µM in [1]; over 100 µM in [2]; over 100 µM in test [3]; over 100 µM in test [4]; 82.5 µM in test [5]; 58.4 µM in [6]. Besides, the TGI in test [7] and in test [8] was over 100 µM in each case.
As to `COc1ccc(NC(=O)C2C(=O)N(c3ccc(OC)cc3)C(=O)/C2=N\NC(N)=O)cc1` (stereo unspecified), the TGI is over 100 µM in test [1]; over 100 µM in test [2]; 46.7 µM in test [4]; 49.3 µM in test [5]; 51.7 µM in test [6]; over 100 µM in test [8].
Turning to `c1ccc(-c2ccnc3c2ccc2c(-c4ccccc4)ccnc23)cc1`, the TGI is 5.5 µM in test [1]; 5.53 µM in [2]; 2.93 µM in test [3]; 2.25 µM in [4]; 9.43 µM in test [5]; 4.76 µM in test [6]. In addition, the TGI was found to be 3.69 µM in [7] and 5.92 µM in test [8].
Turning to `Cc1noc(/N=C2\C=C(Nc3onc(C)c3C)C(=O)c3ccccc32)c1C`, the TGI in [1], in test [2], in test [3], in test [4], in test [5] and in test [6] was over 100 µM in each case. In test [7], this compound yielded a TGI of over 100 µM.
For `COC(=O)C(C(=O)C(N)=O)c1csc(-n2nc(-c3ccccc3)cc2-c2ccccc2)n1` (stereo unspecified), the TGI in test [1], in test [2], in [3], in [4], in test [5] and in test [6] was over 31.6 µM in each case. Moreover, the TGI in test [7] and in test [8] was over 31.6 µM throughout.
Regarding `O=Cc1ccc(N2CCN(c3ccc(C=O)cc3)CC2)cc1`, the GI50 in test [1] was over 100 µM; in test [2], over 100 µM; in test [3], over 100 µM; in test [4] it was 9.36 µM; in test [9] it was over 100 µM; in [5] it was over 100 µM. Further, the GI50 in test [6] is 1.65 µM; in [7] it was over 100 µM; in test [8] it was 43.1 µM. Also, the TGI in test [1], in test [2], in test [3], in test [4], in test [9] and in [5] was over 100 µM throughout. In addition, the TGI in test [6] was 4.12 µM; in test [7] it was over 100 µM; in test [8] it was over 100 µM.
Consider `S=c1c2ccccc2c(=S)n2n1CC=CC2`, for which the TGI in [1], in test [2], in test [3], in [4], in test [5] and in test [6] was over 100 µM each time. The TGI in test [7] and in test [8] was over 100 µM each time.
On to `c1ccc(-c2nnc3nn4c(-c5ccccc5)cnnc4c3c2-c2ccccc2)cc1`, for which the TGI was over 100 µM in test [1]; 70.9 µM in test [2]; over 100 µM in test [3]; over 100 µM in test [4]; 83.9 µM in [5]; over 100 µM in [6]. Moreover, the TGI in test [7] is over 100 µM.
Take `COc1ccc2c([nH]c3c(O)c(-c4c(C)cc5c([nH]c6c(CC=C(C)C)c(OC)ccc65)c4O)c(C)cc32)c1CC=C(C)C`: the TGI in [1], in test [3], in test [4], in [5], in test [7] and in test [8] was over 100 µM each time.
Regarding `O=C(/C=C/c1ccccc1)CCC1C(=O)NC(=S)NC1=O`, the TGI in test [1], in test [3], in test [4], in test [9], in test [6] and in [10] was over 100 µM in each case.
Regarding `Cc1c2ccncc2c(C)c2c1[nH]c1ccc(Cl)cc12`, the GI50 was 5.39 µM and 2.34 µM in test [1]; 3.9 µM in test [2]; 0.91 µM and 0.471 µM in [3]; 4.13 µM in [4]; 8.58 µM in test [6]; 2.62 µM in test [7]. In addition, the TGI was 12 µM and 12.8 µM in [1]; 12.6 µM and 19.3 µM in test [2]; 2.59 µM and 2.77 µM in test [3]; 11.1 µM and 17 µM in test [4]; 10 µM and 12.7 µM in test [5]; 11 µM and 25.4 µM in test [6]. In addition, the TGI in [8] is 9.18 µM and 17.1 µM.
For the compound `C#CCOCn1cnc2ncnc(N)c21`, the TGI in [1], in test [2], in test [3], in [4], in [5] and in test [6] was over 100 µM each time. This compound also had a TGI in [8] of over 100 µM.
For `Cc1ccc(/C=N/NS(=O)(=O)c2ccccc2)c(C)c1`, the TGI in [1], in test [2], in [3], in [4], in test [5] and in [6] was over 100 µM throughout. This compound also yielded a TGI in test [7] of over 100 µM.
For the compound `CC(=O)c1c2c(cc3c1CC1(C3)Cc3cc4c(c(C(=O)O)c3C1)CCC4)CCC2` (stereo unspecified), the TGI in test [1] was over 100 µM; in [3] it was 71.3 µM; in test [4], 78.7 µM; in [5], over 100 µM; in test [7] it was 35.6 µM; in test [8], 42.3 µM.
Turning to `COc1ccc2c(c1)c1c3n2CCNN=C3CCC1`, the TGI in test [1], in test [2], in test [3], in test [4], in test [5] and in test [6] was over 100 µM in each case. In addition, the values for the TGI in [7] and in test [8] were over 71.4 µM and over 100 µM, respectively.
`O=CCCCC(Sc1ccccc1)Sc1ccccc1`: the TGI in test [1] is 48.5 µM; in [2], over 100 µM; in test [3] it was 38.9 µM; in [4], 24.5 µM; in test [5], 35.9 µM; in test [7], 78.3 µM. In [8], this compound showed a TGI of over 100 µM.
As for `O=c1c2ccccc2nc(-c2ccccc2)n1NC(=S)Nc1cccc(Cl)c1`, the TGI is over 100 µM in test [1]; over 100 µM in test [3]; over 100 µM in test [4]; 59.6 µM in test [5]; over 100 µM in test [6]; over 100 µM in [7]. Also, the TGI in test [8] is over 100 µM.
In the case of `CC1=C(N2CC2)C(=O)c2ccccc2C1=O`, the TGI was found to be 1.94 µM in [1]; 0.744 µM in [2]; 16.3 µM in [3]; 2.05 µM in test [4]; 0.276 µM in test [9]; 2.32 µM in test [5]. Moreover, the TGI in [6] was found to be 6.21 µM; in test [7], 17.1 µM; in test [8], 2.36 µM.
With `O=C1C=Cc2ncccc2C1=O`, the TGI in test [1] is 35.1 µM; in test [2], 47.5 µM; in [4], 31.1 µM; in test [5] it was 49.8 µM; in [6], over 58.7 µM; in test [7], 36.1 µM. The TGI in test [8] came to 29.7 µM.
For `Oc1ccc(Cl)cc1/C=N\NC(=S)N/N=C/c1cc(Cl)ccc1O`, the GI50 in test [1] was 2.13 µM; in test [2], 3.23 µM; in [3] it was 2.23 µM; in test [4], 1.74 µM; in test [9] it was 3.67 µM; in [5] it was 6.35 µM. For the same compound, the figures for the GI50 in test [6], in test [7] and in test [8] were 2.34 µM, 1.37 µM and 1.45 µM, respectively. Also, the TGI was 7.49 µM in [1]; over 100 µM in test [2]; 7.62 µM in [3]; 7.57 µM in test [4]; 70 µM in [9]; over 100 µM in test [5]. Also, the figures for the TGI in test [6], in [7] and in [8] were 14.1 µM, 4.23 µM and 5.15 µM, respectively.
With `CC(=O)Nc1ccc(-c2nnc(SCC(=O)Nc3ccc(Cl)cc3)o2)cc1`, the TGI came to 40.9 µM in [1]; 38.4 µM in [2]; 32.8 µM in [3]; 20.2 µM in [4]; 39.7 µM in [5]; 37 µM in test [6]. For the same compound, the results for the TGI in test [7] and in [8] were 40.1 µM and 5.98 µM, respectively.
Regarding `CC(=O)OC(=O)O/C=C\CCl`, the TGI in test [1], in [3], in test [4], in test [5], in test [6] and in test [7] was over 100 µM throughout. This compound also had a TGI in test [8] of 33.1 µM.
Regarding `CCOC(=O)CC(NC(=O)c1ccc(N=NN(C)C)cc1)C(=O)OCC` (stereo unspecified), the TGI in test [1], in test [2], in test [3], in test [4], in test [5] and in test [6] was over 100 µM in each case. The TGI in [7] and in test [8] was over 100 µM throughout.
As to `O=S1(=O)c2ccccc2N=C(c2ccccc2Cl)CC1c1ccc(F)cc1` (stereo unspecified), the TGI in test [1] was 24.7 µM; in test [2] it was 36.2 µM; in test [3], 51.7 µM; in test [4], 32 µM; in test [5] it was 47.8 µM; in test [7], 45.4 µM. Moreover, the TGI in [8] stood at 26.9 µM.
In the case of `Cn1nc(-c2ccccc2)c(C(=O)/C=C/c2ccc(Cl)cc2)c(N2CCCC2)c1=O`, the TGI in test [2] was 32.4 µM; in test [3] it was 6.66 µM; in [4] it was 22.4 µM; in test [7] it was 4.97 µM; in test [8], 6.45 µM.
As for `CCc1cc(Cc2ccc(C)c(NC(=O)C(=O)C3C(=O)NC(=O)NC3=O)c2CC)cc(C)c1NC(=O)C(=O)C1C(=O)NC(=O)NC1=O`, the TGI in test [1], in test [2], in test [3], in [4], in test [5] and in [7] was over 100 µM in each case. Moreover, the TGI in test [8] was over 100 µM.
